# Measurements published in patent US11547703B2, “Substituted fused heteroaromatic tricyclic compounds as kinase inhibitors and the use thereof” (IMPACT THERAPEUTICS (SHANGHAI), INC, priority 2017, dated 2023).
# Columns and labels:
# [1] = system: human colon cancer cell SW620; assay: MTT assay, growth of SW620 cells, compounds combined with CPT-11; format: cell-based; details: 205 nM CPT-11, 5 days, MTT
# Procedure: (§1) SW620 cells were digested by trypsinase, centrifuged at 800 rpm for 5 minutes, the supernatant was discarded, resuspended with fresh medium (RPMI 1640 medium+10% FBS) and counted. The cells were seeded into 96-well cell culture plate with appropriate cell density and incubated overnight in a 37° C. 5% CO2 incubator. The stock solutions of the tested compound and the reference compound AZD0156 were serially diluted to 8 concentrations by DMSO at the ratios of 1:3 and 1:10, respectively, and the last concentration was negative control of DMSO (0 μM, the final concentration of DMSO was 1%). 5 μL of each concentration was added to 120 μL of medium (25 times diluted) and mixed by shaking. The overnight cells were taken and the culture medium was removed, 195 μL of fresh medium containing 205 nM CPT-11 was added to each well, and 5 μL of diluted medium containing the corresponding concentration of the tested sample was added respectively, and the culture plate was then placed in the 5% CO2 cell culture incubator at 37° C. for 5 days. After removing the original solution, 100 μL of fresh serum-free DMEM medium containing MTT (0.5 mg/mL) was added to each well, the culture was continued. After 4 hours, the original solution was removed, 100 μL of DMSO was added into each well, the 96-well plates were shaken away from light for 10 minutes and placed in a multi-function reader to read the absorbance at the wavelength of 552/630/690 nm. GraphPad Prism 6.0 was used to analyze the data. The inhibitory activity of compounds on cell proliferation was plotted based on cell viability and compound concentration. The IC50 value was fitted by a sigmoidal dose response curve equation Y=100/(1+10^(Log C−Log IC50)), where C was the concentration of compound.
# [2] = system: human breast cancer cell MDA-MB-468; assay: MTT assay, growth of MDA-MB-468 cells; format: cell-based; details: single agent, 7 days, MTT
# Procedure: as §1, with “MDA-MB-468 cells” for “SW620 cells”, “1:10, respectively:” for “1:10, respectively, and”, “medium (PRMI 1640+5% FBS)” for “medium containing 205 nM CPT-11”, “for 7 days (On the fourth day, the medium containing drugs was removed and fresh medium containing drugs was added for continuous cultivation).” for “for 5 days.”
# ATM enzyme (human) = ATM enzyme (human) (Homo sapiens, UniProt Q13315); assay: ATM kinase assay (HTRF, phosphorylation of GST-cMyc-p53); format: biochemical
# Sequence of ATM enzyme (human) (Q13315 whole entry): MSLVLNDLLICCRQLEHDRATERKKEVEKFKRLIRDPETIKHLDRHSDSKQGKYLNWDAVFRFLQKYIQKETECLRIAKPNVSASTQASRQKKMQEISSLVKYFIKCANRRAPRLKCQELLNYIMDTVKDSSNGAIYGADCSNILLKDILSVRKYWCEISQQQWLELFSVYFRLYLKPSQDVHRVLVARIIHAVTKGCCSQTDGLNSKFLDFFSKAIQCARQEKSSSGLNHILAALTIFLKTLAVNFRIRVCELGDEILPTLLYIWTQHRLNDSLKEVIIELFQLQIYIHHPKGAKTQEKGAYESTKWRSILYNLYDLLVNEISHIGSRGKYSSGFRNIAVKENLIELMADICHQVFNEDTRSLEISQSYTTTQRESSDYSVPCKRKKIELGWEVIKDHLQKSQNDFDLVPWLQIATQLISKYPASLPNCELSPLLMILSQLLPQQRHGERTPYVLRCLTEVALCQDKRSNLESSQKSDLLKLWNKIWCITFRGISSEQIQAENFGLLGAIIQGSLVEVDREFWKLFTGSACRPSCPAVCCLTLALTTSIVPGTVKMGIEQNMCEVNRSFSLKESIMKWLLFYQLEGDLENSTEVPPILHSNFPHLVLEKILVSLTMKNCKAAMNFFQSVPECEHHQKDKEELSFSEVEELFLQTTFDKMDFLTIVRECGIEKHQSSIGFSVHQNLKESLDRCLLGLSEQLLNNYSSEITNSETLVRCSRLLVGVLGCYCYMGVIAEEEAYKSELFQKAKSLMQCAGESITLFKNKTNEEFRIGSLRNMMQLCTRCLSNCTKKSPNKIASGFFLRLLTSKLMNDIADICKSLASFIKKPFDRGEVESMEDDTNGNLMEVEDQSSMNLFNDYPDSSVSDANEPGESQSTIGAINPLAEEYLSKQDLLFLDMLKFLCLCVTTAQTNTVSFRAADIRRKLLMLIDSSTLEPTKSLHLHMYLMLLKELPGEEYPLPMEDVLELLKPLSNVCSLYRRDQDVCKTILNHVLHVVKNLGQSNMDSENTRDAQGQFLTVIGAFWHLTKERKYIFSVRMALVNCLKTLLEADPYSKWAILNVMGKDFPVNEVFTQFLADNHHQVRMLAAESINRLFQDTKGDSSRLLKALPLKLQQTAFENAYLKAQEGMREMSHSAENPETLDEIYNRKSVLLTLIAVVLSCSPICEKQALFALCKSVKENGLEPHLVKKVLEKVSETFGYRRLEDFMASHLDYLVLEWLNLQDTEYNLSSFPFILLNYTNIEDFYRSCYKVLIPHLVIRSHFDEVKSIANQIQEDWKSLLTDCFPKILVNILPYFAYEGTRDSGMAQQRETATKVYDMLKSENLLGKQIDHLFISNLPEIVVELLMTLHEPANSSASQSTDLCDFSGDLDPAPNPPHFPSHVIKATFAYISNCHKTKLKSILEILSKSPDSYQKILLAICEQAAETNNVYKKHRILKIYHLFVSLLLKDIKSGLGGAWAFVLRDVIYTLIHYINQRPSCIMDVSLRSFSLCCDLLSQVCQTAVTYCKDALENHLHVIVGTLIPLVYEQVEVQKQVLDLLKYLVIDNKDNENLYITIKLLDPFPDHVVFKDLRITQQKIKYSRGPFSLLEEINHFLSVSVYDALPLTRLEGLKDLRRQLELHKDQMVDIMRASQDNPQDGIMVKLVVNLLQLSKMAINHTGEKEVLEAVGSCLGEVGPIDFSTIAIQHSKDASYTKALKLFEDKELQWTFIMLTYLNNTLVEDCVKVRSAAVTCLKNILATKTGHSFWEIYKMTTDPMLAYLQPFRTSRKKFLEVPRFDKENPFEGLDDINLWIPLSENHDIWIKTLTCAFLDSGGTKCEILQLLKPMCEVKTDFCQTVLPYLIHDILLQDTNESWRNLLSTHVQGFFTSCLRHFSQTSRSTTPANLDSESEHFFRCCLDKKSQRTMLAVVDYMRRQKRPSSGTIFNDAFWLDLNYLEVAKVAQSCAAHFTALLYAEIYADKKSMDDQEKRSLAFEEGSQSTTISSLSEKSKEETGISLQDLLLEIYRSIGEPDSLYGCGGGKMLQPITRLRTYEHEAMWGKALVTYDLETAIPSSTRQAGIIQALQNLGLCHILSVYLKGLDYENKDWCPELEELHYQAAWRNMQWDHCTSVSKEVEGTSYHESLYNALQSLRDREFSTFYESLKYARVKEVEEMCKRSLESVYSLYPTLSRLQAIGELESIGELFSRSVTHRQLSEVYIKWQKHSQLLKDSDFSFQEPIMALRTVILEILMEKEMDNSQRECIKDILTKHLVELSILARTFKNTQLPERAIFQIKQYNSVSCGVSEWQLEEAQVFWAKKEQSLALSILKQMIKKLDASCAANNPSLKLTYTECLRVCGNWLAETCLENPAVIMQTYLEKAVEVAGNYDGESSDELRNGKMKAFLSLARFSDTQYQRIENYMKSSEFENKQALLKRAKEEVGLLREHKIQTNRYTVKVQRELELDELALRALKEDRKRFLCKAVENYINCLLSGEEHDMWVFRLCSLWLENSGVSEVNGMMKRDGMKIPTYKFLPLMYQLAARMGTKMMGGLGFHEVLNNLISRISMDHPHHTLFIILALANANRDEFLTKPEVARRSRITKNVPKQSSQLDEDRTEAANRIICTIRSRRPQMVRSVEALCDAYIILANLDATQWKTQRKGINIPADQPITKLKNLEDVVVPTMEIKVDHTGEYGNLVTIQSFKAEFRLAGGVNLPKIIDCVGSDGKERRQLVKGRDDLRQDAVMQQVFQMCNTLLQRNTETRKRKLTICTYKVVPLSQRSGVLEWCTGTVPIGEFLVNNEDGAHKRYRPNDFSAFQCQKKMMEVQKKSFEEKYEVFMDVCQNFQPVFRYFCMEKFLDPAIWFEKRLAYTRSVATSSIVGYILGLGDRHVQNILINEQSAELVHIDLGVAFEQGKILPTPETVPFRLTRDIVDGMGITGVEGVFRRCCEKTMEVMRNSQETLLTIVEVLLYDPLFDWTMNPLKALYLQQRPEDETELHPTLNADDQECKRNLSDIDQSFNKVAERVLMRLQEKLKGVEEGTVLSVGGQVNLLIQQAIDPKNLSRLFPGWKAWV
# Procedure: ATM enzyme (human) was added to the reaction solution containing 30 nM GST-cMyc-p53 and 10 μM Mg/ATP, and then 50 times the concentration of the tested compound (or reference compound AZD0156) dissolved in 100% DMSO was added to the final concentration of 10 μM/1 μM/0.1 μM/0.01 μM. The reaction was initiated by the addition of a Mg/ATP mixture and incubation for 30 minutes at room temperature, the reaction was quenched by the addition of a stop solution containing EDTA. Finally, the detection buffer containing the d2-labeled anti-GST monoclonal antibody and the europium-labeled anti-phospho p53 (Ser15) antibody was added. The plate was then read in time resolved fluorescence mode and the homogeneous time resolved fluorescence (HTRF) signal was determined according to the equation: HTRF=10000×(Em665nm/Em620nm). Each compound sample was repeated in duplicate. The negative control contained all components except the ATM enzyme, and the positive control contained all components. All reactions were quenched by adding EDTA.
# The compounds were serially diluted to 10 concentrations with 100% DMSO at the ratio of 1:3 and 1:10 (the last concentration was negative control of DMSO), then added to the ATM buffer and diluted to a final concentration of 10, 3, 1, 0.3, 0.1, 0.03, 0.01, 0.003, 0.001 and 0 μM, respectively. ATM kinase inhibition was detected by using the method described above. The curve equation for calculating IC50 value is as follows: […]
# wherein, C is the concentration of compound and D is the slope factor. Table 2 summarizes the IC50 values of compounds inhibiting ATM kinase.
# [3] = Homo sapiens, MDA-MB-468, 168 h
# [4] = 0.5 h, detected concentration 1 μm
Compound,"IC50 ([1]; Homo sapiens, SW-620, 120 h)","IC50 [2, 3]",inhibition at 1 µM (ATM enzyme (human); [4]),also measured
"CN(C)CCCOc1ccc(-c2ccc3nc4cccc(CN5CCOCC5)c4n3c2)cn1 [Example 10, N,N-dimethyl-3-((5-(9-(morpholinomethyl)benzo[4,5]imidazo[1,2-a]pyridin-2-yl)pyridin-2-yl)oxy)propan-1-amine]",> 10000 nM,> 10000 nM,77%,–
"CN(C)CCCOc1ccc(-c2ccc3nc4cccc(-n5ccnc5)c4n3c2)cn1 [Example 9, N,N-dimethyl-3-((5-(9-(1H-imidazol-1-yl)benzo[4,5]imidazo[1,2-a]pyridin-2-yl)pyridin-2-yl)oxy) propan-1-amine]",9310 nM,3660 nM,60%,–
"C[C@@H]1CN(c2ccc(-c3cccc4nc5ccc(N6CCOCC6)cc5n34)cn2)C[C@H](C)N1C [Example 17, 1-(6-((3S,5R)-3,4,5-trimethylpiperazin-1-yl)pyridin-3-yl)-8-morpholinobenzo[4,5]imidazo[1,2-a]pyridine]",3250 nM,2620 nM,37%,–
"CN(C)CCCOc1ccc(-c2ccc3ncc4c(c3c2)n(C2CCOCC2)c(=O)n4C)cn1 [AZD0156, reference compound]",–,–,–,IC50 [1]: 8.5 nM; IC50 [2]: 10.6 nM; inhibition(%) of ATM kinase (ATM enzyme (human); detected concentration 1 μm): 100%
"C[C@@H]1CN(c2cccc3nc4ccc(-c5ccc(N6CCC(N(C)C)CC6)c(C(F)(F)F)c5)cn4c23)C[C@H](C)N1C [Example 48, N,N-dimethyl-1-(2-(trifluoromethyl)-4-(9-((3S,5R)-3,4,5-trimethylpiperazin-1-yl)benzo[4,5]imidazo[1,2-a]pyridin-2-yl)phenyl)piperidin-4-amine]",> 1000 nM,> 1000 nM,100%,–
"C[C@@H]1CN(c2cccc3nc4ccc(-c5ccc(N6CCC(N(C)C)CC6)cc5)cn4c23)C[C@H](C)N1C [Example 45, N,N-dimethyl-1-(4-(9-((3S,5R)-3,4,5-trimethylpiperazin-1-yl)benzo[4,5]imidazo[1,2-a]pyridin-2-yl)phenyl)piperidin-4-amine]",> 500 nM,322 nM,100%,–
"CN(C)CCCOc1ccc(-c2ccc3nc4cccc(N5CCN(C)CC5)c4n3c2)cc1C(F)(F)F [Example 44, N,N-dimethyl-3-(2-(trifluoromethyl)-4-(9-(4-methylpiperazin-1-yl)benzo[4,5]imidazo[1,2-a]pyridin-2-yl)phenoxy)propan-1-amine]",> 500 nM,> 100000 nM,97%,–

# Continued by falling IC50 ([1]; Homo sapiens, SW-620, 120 h), values first:
"IC50 ([1]; Homo sapiens, SW-620, 120 h)","IC50 [2, 3]",inhibition at 1 µM (ATM enzyme (human); [4]),Compound,also measured
2420 nM,> 10000 nM,39%,"CN(C)CCCOc1ccc(-c2ccc3nc4cccc(NC5CCN(C)CC5)c4n3c2)cn1 [Example 15, N,N-dimethyl-3-((5-(9-(1-methylpiperidin-4-ylamino)benzo[4,5]imidazo[1,2-a]pyridin-2-yl)pyridin-2-yl)oxy)propan-1-amine]",–
2100 nM,2400 nM,88%,"CN(C)C1CCN(c2ccc(-c3ccc4nc5cccc(N6CCOCC6)c5n4c3)cn2)CC1 [Example 42, N,N-dimethyl-1-(5-(9-morpholinobenzo[4,5]imidazo[1,2-a]pyridin-2-yl)pyridin-2-yl)piperidin-4-amine]",–
1340 nM,2800 nM,–,"CN(C)CCCOc1ccc(-c2ccc3nc4cccc(C5=CCOCC5)c4n3c2)cn1 [Example 1, N,N-dimethyl-3-((5-(9-(3,6-dihydro-2H-pyran-4-yl)benzo[4,5]imidazo[1,2-a]pyridin-2-yl)pyridin-2-yl)oxy)propan-1-amine]","IC50 (ATM enzyme (human); 10 concentrations, 10 to 0.001 μM, read-out: IC50 (nM), in vitro inhibitory effect on ATM kinase): 239 nM; inhibition at 10 µM (ATM enzyme (human); 0.5 h, detected concentration 10 μm): 100%; effect on ATM kinase (in words) (ATM enzyme (human); ATM kinase (human) assay): good effect"
1050 nM,542 nM,99%,"CN1CCN(c2cccc3nc4ccc(-c5ccc(N6CCC(N(C)C)CC6)c(C(F)(F)F)c5)cn4c23)CC1 [Example 43, N,N-dimethyl-1-(2-(trifluoromethyl)-4-(9-(4-methylpiperazin-1-yl)benzo[4,5]imidazo[1,2-a]pyridin-2-yl)-phenyl)piperidin-4-amine]",–
528 nM,703 nM,88%,"CN(C)CCCOc1ccc(-c2ccc3nc4cccc(OC5CCN(C)CC5)c4n3c2)cn1 [Example 12, N,N-dimethyl-3-((5-(9-((1-methylpiperidin-4-yl)oxy)benzo[4,5]imidazo[1,2-a]pyridin-2-yl)pyridin-2-yl)oxy)propan-1-amine]",–
434 nM,25.1 nM,99%,"C[C@@H]1CN(c2cccc3nc4ccc(-c5ccc(OCCCN(C)C)nc5)cn4c23)C[C@H](C)N1C [Example 8, N,N-dimethyl-3-((5-(9-((3S,5R)-3,4,5-trimethylpiperazin-1-yl)benzo[4,5]imidazo[1,2-a]pyridin-2-yl)pyridin-2-yl)oxy)propan-1-amine]",–
166 nM,60.5 nM,100%,"C[C@@H]1CN(c2cccc3nc4ccc(-c5ccc(N6CCC(N(C)C)CC6)c(Cl)c5)cn4c23)C[C@H](C)N1C [Example 47, N,N-dimethyl-1-(2-chloro-4-(9-((3S,5R)-3,4,5-trimethylpiperazin-1-yl)benzo[4,5]imidazo[1,2-a]pyridin-2-yl)phenyl)piperidin-4-amine]",–
152 nM,55 nM,100%,"C[C@@H]1CN(c2cccc3nc4ccc(-c5ccc(N6CCC(N(C)C)CC6)c(F)c5)cn4c23)C[C@H](C)N1C [Example 46, N,N-dimethyl-1-(2-fluoro-4-(9-((3S,5R)-3,4,5-trimethylpiperazin-1-yl)benzo[4,5]imidazo[1,2-a]pyridin-2-yl)phenyl)piperidin-4-amine]",–
